Read-outs that look alike come from different tables or passages of the source.
Experiments:
[1] = tested on: 3T3 cells; experiment: MTT cell proliferation assay, 3T3; type: cell-based, mouse; conditions: Mus musculus
Outline: (§1)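 Absorbance at 490 nm of solubilized formazan, produced during roughly 4 h MTT incubation, gave percent inhibition relative to negative control. Compounds spanned eight concentrations between 1 nM and 30 μM on cells plated overnight at 5,000-10,000 per well.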

[2] = tested on: Z138 cells; experiment: MTT cell proliferation assay, Z138; type: cell-based; conditions: Homo sapiens
Outline: as §1

[3] = tested on: MS751 cells; experiment: MTT cell proliferation assay, MS751; type: cell-based, human; conditions: Homo sapiens
Outline: as §1

[4] = NIH3T3, read-out: MTT Assay IC50, 3T3
[5] = Z-138, read-out: MTT Assay IC50, Z138
[6] = MS751, read-out: MTT Assay IC50, MS751
[7] = NIH3T3, 3T3 cells, approximately 64-72 hours incubation, read-out: MTT Assay IC50, 3T3
[8] = Z-138, Z138 cells, approximately 64-72 hours incubation, read-out: MTT Assay IC50, Z138
[9] = MS751, MS751 cells, approximately 64-72 hours incubation, read-out: MTT Assay IC50, MS751

SMILES	IC50 [1, 4] [µM]	IC50 [2, 5] [µM]	IC50 [3, 6] [µM]	IC50 [1, 7] [µM]	IC50 [2, 8] [µM]	IC50 [3, 9] [µM]
CC(=O)c1ccc(-c2cc(Cl)c3c(c2)CC(CNC(=O)/C=C/c2ccc(O)nc2)O3)s1 (stereo not drawn) [Compound 311, (E)-N-((5-(5-acetylthiophen-2-yl)-7-chloro-2,3-dihydrobenzofuran-2-yl)methyl)-3-(6-hydroxypyridin-3-yl)acrylamide]	> 30	> 30	> 30			
CC(=O)c1ccc(-c2cc(Cl)c3c(c2)CC(CNC(=O)/C=C/c2cccnn2)O3)o1 (stereo not drawn) [Compound 314, (E)-N-((5-(5-acetylfuran-2-yl)-7-chloro-2,3-dihydrobenzofuran-2-yl)methyl)-3-(pyridazin-3-yl)acrylamide]				0.1 to 5	0.1 to 5	0.1 to 5
CC(=O)Nc1ccc(/C=C/C(=O)NCC2Cc3cc(-c4ccc(C(C)=O)s4)cc(Cl)c3O2)cn1 (stereo not drawn) [Compound 315, (E)-3-(6-acetamidopyridin-3-yl)-N-((5-(5-acetylthiophen-2-yl)-7-chloro-2,3-dihydrobenzofuran-2-yl)methyl)acrylamide]	> 30	> 30	> 30			
CC(=O)c1ccc(-c2cc(Cl)c3c(c2)CC(CNC(=O)/C=C/c2ccc(N)nc2)O3)o1 (stereo not drawn) [Compound 319, (E)-N-((5-(5-acetylfuran-2-yl)-7-chloro-2,3-dihydrobenzofuran-2-yl)methyl)-3-(6-aminopyridine-3-yl)acrylamide]				5 to 30	< 0.1	0.1 to 5
CC(C)(O)c1ccc(-c2cc(Cl)c3c(c2)CC(CNC(=O)/C=C/c2cccnn2)O3)s1 (stereo not drawn) [Compound 320, (E)-N-((7-chloro-5-(5-(2-hydroxypropan-2-yl)thiophen-2-yl)-2,3-dihydrobenzofuran-2-yl)methyl)-3-(pyridazin-3-yl)acrylamide]				0.1 to 5	0.1 to 5	0.1 to 5
CC(C)(O)c1ccc(-c2cc(Cl)c3c(c2)CC(CNC(=O)/C=C/c2ccc(N)nc2)O3)s1 (stereo not drawn) [Compound 321, (E)-3-(6-aminopyridin-3-yl)-N-((7-chloro-5-(5-(2-hydroxypropan-2-yl)thiophen-2-yl)-2,3-dihydrobenzofuran-2-yl)methyl)acrylamide]				5 to 30	< 0.1	0.1 to 5
CC(=O)c1sc(-c2cc(Cl)c3c(c2)CC(CNC(=O)/C=C/c2ccc(N)nc2)O3)c(C)c1C (stereo not drawn) [Compound 322]				5 to 30	< 0.1	< 0.1
Nc1ccc(/C=C/C(=O)NCC2Cc3cc(-c4cnc(C(=O)N5CCOCC5)nc4)cc(Cl)c3O2)cn1 (stereo not drawn) [Compound 323, (E)-3-(6-aminopyridin-3-yl)-N-((7-chloro-5-(2-(morpholine-4-carbonyl)pyrimidin-5-yl)-2,3-dihydrobenzofuran-2-yl)methyl)acrylamide]				5 to 30	0.1 to 5	0.1 to 5
CN(C)C(=O)c1ccc(-c2cc(Cl)c3c(c2)CC(CNC(=O)/C=C/c2ccc(N)nc2)O3)o1 (stereo not drawn) [Compound 324, (E)-5-(2-((3-(6-Aminopyridin-3-yl)acrylamido)methyl)-7-chloro-2,3-dihydrobenzofuran-5-yl)-N,N-dimethylfuran-2-carboxamide]				5 to 30	< 0.1	< 0.1
Cc1onc(-c2ccccc2)c1-c1cc(Cl)c2c(c1)CC(CNC(=O)/C=C/c1ccc(N)nc1)O2 (stereo not drawn) [Compound 325, (E)-3-(6-aminopyridin-3-yl)-N-((7-chloro-5-(5-methyl-3-phenylisoxazol-4-yl)-2,3-dihydrobenzofuran-2-yl)methyl)acrylamide]				0.1 to 5	< 0.1	0.1 to 5
Nc1ccc(/C=C/C(=O)NCC2Cc3cc(-c4cnc(C(=O)N5CCOCC5)c(Cl)c4)cc(Cl)c3O2)cn1 (stereo not drawn) [Compound 326, (E)-3-(6-aminopyridin-3-yl)-N-((7-chloro-5-(5-chloro-6-(morpholine-4-carbonyl)pyridin-3-yl)-2,3-dihydrobenzofuran-2-yl)methyl)acrylamide]				5 to 30	< 0.1	0.1 to 5
Cc1noc(-c2ccccc2)c1-c1cc(Cl)c2c(c1)CC(CNC(=O)/C=C/c1ccc(N)nc1)O2 (stereo not drawn) [Compound 327, (E)-3-(6-aminopyridin-3-yl)-N-((7-chloro-5-(3-methyl-5-phenylisoxazol-4-yl)-2,3-dihydrobenzofuran-2-yl)methyl)acrylamide]				0.1 to 5	< 0.1	0.1 to 5
Nc1ccc(/C=C/C(=O)NCC2Cc3cc(-c4cc(F)c(C(=O)N5CCOCC5)cc4F)cc(Cl)c3O2)cn1 (stereo not drawn) [Compound 328, (E)-3-(6-Aminopyridin-3-yl)-N-((7-chloro-5-(2,5-difluoro-4-(morpholine-4-carbonyl)phenyl)-2,3-dihydrobenzofuran-2-yl)methyl)acrylamide]				0.1 to 5	< 0.1	< 0.1
Nc1ccc(/C=C/C(=O)NCC2Cc3cc(-c4cnc(C(=O)N5CCOCC5)c(F)c4)cc(Cl)c3O2)cn1 (stereo not drawn) [Compound 329, (E)-3-(6-Aminopyridin-3-yl)-N-((7-chloro-5-(5-fluoro-6-(morpholine-4-carbonyl)pyridin-3-yl)-2,3-dihydrobenzofuran-2-yl)methyl)acrylamide]				5 to 30	< 0.1	0.1 to 5
Nc1ccc(/C=C/C(=O)NCC2Cc3cc(-c4ncc(C(=O)N5CCOCC5)cn4)cc(Cl)c3O2)cn1 (stereo not drawn) [Compound 330, (E)-3-(6-Aminopyridin-3-yl)-N-((7-chloro-5-(5-(morpholine-4-carbonyl)pyrimidin-2-yl)-2,3-dihydrobenzofuran-2-yl)methyl)acrylamide]				5 to 30	< 0.1	< 0.1
Nc1ccc(/C=C/C(=O)NCC2Cc3cc(-c4ccc(C(=O)N5CCOCC5)nn4)cc(Cl)c3O2)cn1 (stereo not drawn) [Compound 331, (E)-3-(6-Aminopyridin-3-yl)-N-((7-chloro-5-(6-(morpholine-4-carbonyl)pyridazin-3-yl)-2,3-dihydrobenzofuran-2-yl)methyl)acrylamide]				5 to 30	< 0.1	0.1 to 5
Nc1ccc(/C=C/C(=O)NCC2Cc3cc(-c4cc(F)c(C(=O)N5CCOCC5)c(F)c4)cc(Cl)c3O2)cn1 (stereo not drawn) [Compound 332, (E)-3-(6-Aminopyridin-3-yl)-N-((7-chloro-5-(3,5-difluoro-4-(morpholine-4-carbonyl)phenyl)-2,3-dihydrobenzofuran-2-yl)methyl)acrylamide]				0.1 to 5	< 0.1	< 0.1
Nc1ccc(/C=C/C(=O)NCC2Cc3cc(-c4ccc(C(=O)N5CCOCC5)cn4)cc(Cl)c3O2)cn1 (stereo not drawn) [Compound 333, (E)-3-(6-Aminopyridin-3-yl)-N-((7-chloro-5-(5-(morpholine-4-carbonyl)pyridin-2-yl)-2,3-dihydrobenzofuran-2-yl)methyl)acrylamide]				5 to 30	< 0.1	< 0.1
O=C(/C=C/C1Cc2cc(-c3ccc(C(=O)N4CCOCC4)cc3)cc(Cl)c2O1)NCc1cccnc1 (stereo not drawn) [Compound 334, (E)-3-(7-Chloro-5-(4-(morpholine-4-carbonyl)phenyl)-2,3-dihydrobenzofuran-2-yl)-N-(pyridin-3-ylmethyl)acrylamide]				5 to 30	0.1 to 5	0.1 to 5

Reference: patent US9938258B2 (Karyopharm Therapeutics Inc., priority 2012, dated 2018)
